According to ChEMBL document CHEMBL1131559, “Novel quinolone derivatives as potent antibacterials” (1998):
Values after ≈ are worked out from the molar mass of the structure shown.

Columns and labels:
[1] = test system: Escherichia coli; test: Compound was evaluated for in vitro antibacterial activity against gram negative organism Escherichia coli strain DRCC 091; format: functional
[2] = test system: Escherichia coli; test: Compound was evaluated for in vitro antibacterial activity against gram negative organism Escherichia coli strain DRCC 133; format: functional
[3] = test system: Escherichia coli; test: Compound was evaluated for in vitro antibacterial activity against gram negative organism Escherichia coli strain DRCC 134; format: functional
[4] = test system: Klebsiella pneumoniae; test: Compound was evaluated for in vitro antibacterial activity against gram negative organism Klebsiella pneumoniae strain ATCC 10031; format: functional
[5] = test system: Klebsiella pneumoniae; test: Compound was evaluated for in vitro antibacterial activity against gram negative organism Klebsiella pneumoniae strain DRCC 132; format: functional
[6] = test system: Klebsiella pneumoniae; test: Compound was evaluated for in vitro antibacterial activity against gram negative organism Klebsiella pneumoniae strain DRCC 136; format: functional
[7] = test system: Pseudomonas aeruginosa; test: Compound was evaluated for in vitro antibacterial activity against gram negative organism Pseudomonas aeruginosa strain MTCC 1688; format: functional
[8] = test system: Pseudomonas aeruginosa; test: Compound was evaluated for in vitro antibacterial activity against gram negative organism Pseudomonas aeruginosa strain DRCC 131; format: functional
[9] = test system: Pseudomonas fluorescens; test: Compound was evaluated for in vitro antibacterial activity against gram negative organism Pseudomonas fluorescence strain DRCC 008; format: functional
[10] = test system: Pseudomonas fluorescens; test: Compound was evaluated for in vitro antibacterial activity against gram negative organism Pseudomonas fluorescence strain NCIMB 10586; format: functional
[11] = test system: Pseudomonas aeruginosa; test: Compound was evaluated for in vitro antibacterial activity against gram negative organism Pseudomonas aeruginosa strain DRCC 135; format: functional
[12] = test system: Salmonella typhi; test: Compound was evaluated for in vitro antibacterial activity against gram negative organism Salmonella typhi strain MTCC 531; format: functional, Salmonella enterica subsp. enterica serovar Typhi; details: Salmonella enterica
[13] = test system: Salmonella enterica subsp. enterica serovar Abony; test: Compound was evaluated for in vitro antibacterial activity against gram negative organism Salmonella abony strain NCIM 2257; format: functional
[14] = test system: Salmonella typhimurium; test: Compound was evaluated for in vitro antibacterial activity against gram negative organism Salmonella Typhimurium MTCC 98; format: functional, Salmonella enterica subsp. enterica serovar Typhimurium; details: Salmonella enterica
[15] = test system: Staphylococcus aureus; test: Compound was evaluated for in vitro antibacterial activity against gram positive organism Staphylococcus aureus strain ATCC 29213; format: functional
[16] = test system: Staphylococcus aureus; test: Compound was evaluated for in vitro antibacterial activity against gram positive organism Staphylococcus aureus strain ATCC 33591; format: functional
[17] = test system: Staphylococcus aureus; test: Compound was evaluated for in vitro antibacterial activity against gram positive organism Staphylococcus aureus strain ATCC 33592; format: functional
[18] = test system: Staphylococcus aureus; test: Compound was evaluated for in vitro antibacterial activity against gram positive organism Staphylococcus aureus strain ATCC 6538P; format: functional
[19] = test system: Staphylococcus aureus; test: Compound was evaluated for in vitro antibacterial activity against gram positive organism Staphylococcus aureus strain MTCC 737; format: functional
[20] = test system: Staphylococcus epidermidis; test: Compound was evaluated for in vitro antibacterial activity against gram positive organism Staphylococcus epidermidis strain ATCC 12228; format: functional
[21] = test system: Enterococcus faecalis; test: Compound was evaluated for in vitro antibacterial activity against gram positive organism Streptococcus faecalis strain ATCC 29212; format: functional
[22] = test system: Enterococcus faecalis; test: Compound was evaluated for in vitro antibacterial activity against gram positive organism Streptococcus faecalis strain ATCC 49384; format: functional
[23] = test system: Escherichia coli; test: Compound was evaluated for in vitro antibacterial activity against gram negative organism Escherichia coli strain ATCC 25922; format: functional
[24] = test system: Escherichia coli; test: Compound was evaluated for in vitro antibacterial activity against gram negative organism Escherichia coli strain ATCC 35218; format: functional
[25] = test system: Pseudomonas aeruginosa; test: Compound was evaluated for in vitro antibacterial activity against gram negative organism Pseudomonas aeruginosa strain DRCC 137; format: functional
[26] = test system: Pseudomonas aeruginosa; test: Compound was evaluated for in vitro antibacterial activity against gram negative organism Pseudomonas aeruginosa strains ATCC 27853; format: functional
[27] = test system: Enterococcus faecalis; test: Compound was evaluated for in vitro antibacterial activity against gram positive organism Streptococcus faecalis strain ATCC 51299; format: functional
[28] = test system: Streptococcus pyogenes; test: Compound was evaluated for in vitro antibacterial activity against gram positive organism Streptococcus pyogenes strain DRCC 092; format: functional
[29] = test system: Pseudomonas aeruginosa; test: Compound was evaluated for in vitro antibacterial activity against gram negative organism Pseudomonas aeruginosa strainsATCC 27853; format: functional; details: ATCC 27853
[30] = test system: Staphylococcus aureus; test: Compound was evaluated for in vitro antibacterial activity against gram positive organism Staphylococcus aureus strainATCC 6538P; format: functional; details: ATCC 6538P
[31] = test system: Enterococcus faecalis; test: Compound was evaluated for in vitro antibacterial activity against gram positive organism Streptococcus faecalis strainATCC 49384; format: functional; details: ATCC 49384

Structure (SMILES)	MIC [1]	MIC [2]	MIC [3]	MIC [4]	MIC [5]	MIC [6]	MIC [7]	MIC [8]	MIC [9]	MIC [11]	MIC [12]	MIC [13]	MIC [14]	MIC [15]	MIC [16]	MIC [17]	MIC [18]	MIC [19]	MIC [20]	MIC [21]	other results
O=C(O)c1cn(C2CC2)c2cc(N3CCNCC3)c(F)cc2c1=O [CIPROFLOXACIN]	> 8 µg/mL	> 8 µg/mL	> 8 µg/mL	0.03 µg/mL (≈ 0.0905 µM)	> 8 µg/mL	1 µg/mL (≈ 3.02 µM)	0.06 µg/mL (≈ 0.181 µM)	> 8 µg/mL	0.5 µg/mL (≈ 1.51 µM)	> 8 µg/mL	0.25 µg/mL (≈ 0.754 µM)	1 µg/mL (≈ 3.02 µM)	0.25 µg/mL (≈ 0.754 µM)	2 µg/mL (≈ 6.04 µM)	0.25 µg/mL (≈ 0.754 µM)	4 µg/mL (≈ 12.1 µM)	0.5 µg/mL (≈ 1.51 µM)	0.25 µg/mL (≈ 0.754 µM)	1 µg/mL (≈ 3.02 µM)	0.125 µg/mL (≈ 0.377 µM)	MIC [10]: > 8 µg/mL; MIC [22]: 4 µg/mL (≈ 12.1 µM)
CCn1cc(C(=O)O)c(=O)c2cc(F)c(N3CCNCC3)cc21 [NORFLOXACIN]	> 8 µg/mL	> 8 µg/mL	> 8 µg/mL	0.03 µg/mL (≈ 0.0939 µM)	> 8 µg/mL	0.5 µg/mL (≈ 1.57 µM)	0.125 µg/mL (≈ 0.391 µM)	> 8 µg/mL	0.25 µg/mL (≈ 0.783 µM)	> 8 µg/mL	0.25 µg/mL (≈ 0.783 µM)	0.5 µg/mL (≈ 1.57 µM)	0.5 µg/mL (≈ 1.57 µM)	4 µg/mL (≈ 12.5 µM)	1 µg/mL (≈ 3.13 µM)	4 µg/mL (≈ 12.5 µM)	1 µg/mL (≈ 3.13 µM)	4 µg/mL (≈ 12.5 µM)	1 µg/mL (≈ 3.13 µM)	1 µg/mL (≈ 3.13 µM)	MIC [23]: 0.03 µg/mL (≈ 0.0939 µM); MIC [24]: 0.125 µg/mL (≈ 0.391 µM); MIC [25]: 2 µg/mL (≈ 6.26 µM); MIC [26]: 4 µg/mL (≈ 12.5 µM); MIC [10]: > 8 µg/mL; MIC [22]: 4 µg/mL (≈ 12.5 µM); MIC [27]: 2 µg/mL (≈ 6.26 µM); MIC [28]: 2 µg/mL (≈ 6.26 µM)
N[C@@H]1CN(c2cc3c(cc2F)c(=O)c(C(=O)O)cn3C2CC2)C[C@H]1N.O=C(O)C(F)(F)F	> 8 µg/mL	> 8 µg/mL	> 8 µg/mL	0.125 µg/mL	> 8 µg/mL	4 µg/mL	0.5 µg/mL	> 8 µg/mL	1 µg/mL	> 8 µg/mL	1 µg/mL	2 µg/mL	> 8 µg/mL	2 µg/mL	2 µg/mL	8 µg/mL	–	2 µg/mL	2 µg/mL	2 µg/mL	MIC [23]: 0.25 µg/mL; MIC [24]: 1 µg/mL; MIC [25]: > 8 µg/mL; MIC [29]: 4 µg/mL; MIC [30]: 2 µg/mL; MIC [27]: 1 µg/mL; MIC [31]: 4 µg/mL; MIC [28]: 1 µg/mL
Cl.N[C@@H]1CN(c2cc3c(cc2F)c(=O)c(C(=O)O)cn3-c2ccc(F)cc2)C[C@H]1N	> 8 µg/mL	> 8 µg/mL	> 8 µg/mL	1 µg/mL	> 8 µg/mL	> 8 µg/mL	2 µg/mL	1 µg/mL	2 µg/mL	> 8 µg/mL	> 8 µg/mL	4 µg/mL	1 µg/mL	1 µg/mL	1 µg/mL	1 µg/mL	1 µg/mL	1 µg/mL	1 µg/mL	2 µg/mL	MIC [23]: 1 µg/mL; MIC [24]: 1 µg/mL; MIC [25]: > 8 µg/mL; MIC [26]: 8 µg/mL; MIC [22]: 1 µg/mL; MIC [27]: 1 µg/mL; MIC [28]: 0.5 µg/mL
